In PMC5974041, “Functional Studies of Sex Pheromone Receptors in Asian Corn Borer Ostrinia furnacalis” (Frontiers in Physiology, 2018):

Legend:
Test in all cases: two-electrode voltage clamp, Xenopus oocytes
Assay type in all cases: cell-based
Conditions in all cases: pH 7.6 Ringer's buffer, -80 mV, co-expressed OfurOrco, agonist
OfurOR4 = target: T1, OfurOR4 (Ostrinia furnacalis, UniProt A0A0E3VLP9)
T1 construct: gene OR4; full-length ORF from male antennal cDNA, untagged, in PT7TS; cRNA co-injected 1:1 with OfurOrco in Xenopus oocytes; naming of Yang et al. 2015 (group OR4 = OnubOR3 of Wanner/Leary); with Odorant receptor co-receptor (Orco)
T1 sequence (A0A0E3VLP9 1-422): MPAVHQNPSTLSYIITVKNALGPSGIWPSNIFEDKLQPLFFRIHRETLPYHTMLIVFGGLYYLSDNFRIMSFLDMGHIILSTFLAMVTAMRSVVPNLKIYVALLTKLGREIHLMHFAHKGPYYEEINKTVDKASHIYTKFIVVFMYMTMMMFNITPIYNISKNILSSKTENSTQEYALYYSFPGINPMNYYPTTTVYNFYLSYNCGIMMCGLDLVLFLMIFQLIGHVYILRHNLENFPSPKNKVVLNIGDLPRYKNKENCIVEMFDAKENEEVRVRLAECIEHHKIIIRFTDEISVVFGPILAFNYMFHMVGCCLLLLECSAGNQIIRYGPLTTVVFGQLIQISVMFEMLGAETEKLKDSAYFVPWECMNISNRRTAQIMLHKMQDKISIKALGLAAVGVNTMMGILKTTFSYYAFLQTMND
T1 sequence (A0A0E4B591 1-474 partner): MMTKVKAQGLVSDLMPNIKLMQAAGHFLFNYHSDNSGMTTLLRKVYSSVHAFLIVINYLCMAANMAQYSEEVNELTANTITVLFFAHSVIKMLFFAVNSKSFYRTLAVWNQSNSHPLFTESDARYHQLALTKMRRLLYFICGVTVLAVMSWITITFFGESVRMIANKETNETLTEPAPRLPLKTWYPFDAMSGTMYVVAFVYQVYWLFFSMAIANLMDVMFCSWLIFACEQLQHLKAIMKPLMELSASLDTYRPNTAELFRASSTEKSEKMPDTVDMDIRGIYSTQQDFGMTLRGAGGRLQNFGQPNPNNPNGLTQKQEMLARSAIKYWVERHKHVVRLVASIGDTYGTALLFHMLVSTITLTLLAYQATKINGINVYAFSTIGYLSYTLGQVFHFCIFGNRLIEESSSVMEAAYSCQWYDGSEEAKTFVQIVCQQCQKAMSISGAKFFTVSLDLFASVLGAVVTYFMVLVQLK

OfurOR5b = target: T2, OfurOR5b (Ostrinia furnacalis, UniProt M4NPQ0)
T2 construct: gene OR5b; full-length ORF from male antennal cDNA, untagged, in PT7TS; cRNA co-injected 1:1 with OfurOrco in Xenopus oocytes; with Odorant receptor co-receptor (Orco)
T2 sequence (M4NPQ0 1-424): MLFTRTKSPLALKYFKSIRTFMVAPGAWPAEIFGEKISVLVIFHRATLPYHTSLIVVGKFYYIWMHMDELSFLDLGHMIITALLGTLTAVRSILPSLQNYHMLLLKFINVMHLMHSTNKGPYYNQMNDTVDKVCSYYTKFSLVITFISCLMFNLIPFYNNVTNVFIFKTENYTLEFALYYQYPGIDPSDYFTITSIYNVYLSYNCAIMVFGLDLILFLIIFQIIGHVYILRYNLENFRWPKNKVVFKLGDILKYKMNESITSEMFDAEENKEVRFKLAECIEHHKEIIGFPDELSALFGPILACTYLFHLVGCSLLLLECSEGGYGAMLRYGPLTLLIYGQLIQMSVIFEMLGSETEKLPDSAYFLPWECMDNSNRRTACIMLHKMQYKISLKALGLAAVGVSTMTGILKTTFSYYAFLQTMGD
T2 sequence (A0A0E4B591 1-474 partner): T1 sequence (A0A0E4B591 1-474 partner)

OfurOR8 = target: T3, OfurOR8 (Ostrinia furnacalis, UniProt A0A0E4B5G7)
T3 construct: gene OR8; full-length ORF from male antennal cDNA, untagged, in PT7TS; cRNA co-injected 1:1 with OfurOrco in Xenopus oocytes; naming of Yang et al. 2015; with Odorant receptor co-receptor (Orco)
T3 sequence (A0A0E4B5G7 1-437): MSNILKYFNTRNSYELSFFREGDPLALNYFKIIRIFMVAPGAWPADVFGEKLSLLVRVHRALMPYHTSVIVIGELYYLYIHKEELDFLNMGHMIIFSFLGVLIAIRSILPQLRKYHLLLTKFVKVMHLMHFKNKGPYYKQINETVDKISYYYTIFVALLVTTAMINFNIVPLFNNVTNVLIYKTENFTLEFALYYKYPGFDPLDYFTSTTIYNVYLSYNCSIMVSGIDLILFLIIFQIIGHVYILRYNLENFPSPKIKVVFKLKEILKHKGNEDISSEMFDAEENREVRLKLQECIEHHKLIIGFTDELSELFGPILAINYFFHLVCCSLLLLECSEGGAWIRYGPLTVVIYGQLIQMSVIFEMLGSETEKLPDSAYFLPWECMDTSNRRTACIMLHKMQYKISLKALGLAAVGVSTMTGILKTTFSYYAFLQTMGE
T3 sequence (A0A0E4B591 1-474 partner): T1 sequence (A0A0E4B591 1-474 partner)

OfurOR6 = target: T4, OfurOR6 (Ostrinia furnacalis, UniProt M4NL06)
T4 construct: gene OR6; full-length ORF from male antennal cDNA, untagged, in PT7TS; cRNA co-injected 1:1 with OfurOrco in Xenopus oocytes; naming of Yang et al. 2015; with Odorant receptor co-receptor (Orco)
T4 sequence (M4NL06 1-421): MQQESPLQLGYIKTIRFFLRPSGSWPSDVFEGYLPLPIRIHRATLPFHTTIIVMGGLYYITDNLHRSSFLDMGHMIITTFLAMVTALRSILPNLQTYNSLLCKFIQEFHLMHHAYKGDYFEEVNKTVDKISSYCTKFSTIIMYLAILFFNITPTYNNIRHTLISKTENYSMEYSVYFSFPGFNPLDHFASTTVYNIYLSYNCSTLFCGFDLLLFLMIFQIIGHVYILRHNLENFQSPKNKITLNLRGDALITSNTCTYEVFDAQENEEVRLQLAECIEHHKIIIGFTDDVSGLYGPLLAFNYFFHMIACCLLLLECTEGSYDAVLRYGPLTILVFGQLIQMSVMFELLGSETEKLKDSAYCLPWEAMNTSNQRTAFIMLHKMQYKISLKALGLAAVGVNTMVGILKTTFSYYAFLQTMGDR
T4 sequence (A0A0E4B591 1-474 partner): T1 sequence (A0A0E4B591 1-474 partner)

OfurOR7 = target: T5, OfurOR7 (Ostrinia furnacalis, UniProt M4NKX7)
T5 construct: gene OR7; full-length ORF from male antennal cDNA, untagged, in PT7TS; cRNA co-injected 1:1 with OfurOrco in Xenopus oocytes; naming of Yang et al. 2015; with Odorant receptor co-receptor (Orco)
T5 sequence (M4NKX7 1-428): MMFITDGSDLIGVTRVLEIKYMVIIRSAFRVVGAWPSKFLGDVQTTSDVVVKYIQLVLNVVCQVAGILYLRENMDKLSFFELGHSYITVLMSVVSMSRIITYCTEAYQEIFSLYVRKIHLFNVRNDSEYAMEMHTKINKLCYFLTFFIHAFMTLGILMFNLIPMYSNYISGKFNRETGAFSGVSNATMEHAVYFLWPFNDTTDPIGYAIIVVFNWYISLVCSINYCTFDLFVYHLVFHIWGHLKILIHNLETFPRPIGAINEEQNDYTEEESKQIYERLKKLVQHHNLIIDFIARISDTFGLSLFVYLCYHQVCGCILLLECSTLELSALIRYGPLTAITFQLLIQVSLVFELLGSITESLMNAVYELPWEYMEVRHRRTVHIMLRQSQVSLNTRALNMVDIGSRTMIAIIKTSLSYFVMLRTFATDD
T5 sequence (A0A0E4B591 1-474 partner): T1 sequence (A0A0E4B591 1-474 partner)

CC/C=C/CCCCCCCCCCOC(C)=O [E11-14:OAc, (E)-11-tetradecenyl acetate]
current at 100 μM (OfurOR4): inhibited the response of Z9-14:OAc, Z11-14:OAc, and E11-14:OAc | current at 100 μM (OfurOR5b): OfurOR5b broadly tuned to Z9-14:OAc, E11-14:OAc, Z11-14:OAc, E12-14:OAc, and Z12-14:OAc | current at 100 μM (OfurOR8): 144.6 ± 28.3 nA

C/C=C/CCCCCCCCCCCOC(C)=O [E12-14:OAc, E-12-tetradecenyl acetate]
current at 100 μM (OfurOR4; standard order of application (response depends on order)): 727.9 ± 120.4 nA | current at 100 μM (OfurOR6): 140.7 ± 6.0 nA | current at 100 μM (OfurOR5b): OfurOR5b broadly tuned to Z9-14:OAc, E11-14:OAc, Z11-14:OAc, E12-14:OAc, and Z12-14:OAc

CCCC/C=C\CCCCCCCCOC(C)=O [Z9-14:OAc, (Z)-9-tetradecenyl acetate]
current at 100 μM (OfurOR4): inhibited the response of Z9-14:OAc, Z11-14:OAc, and E11-14:OAc | current at 100 μM (OfurOR7): 212.2 ± 46.3 nA | current at 100 μM (OfurOR5b): OfurOR5b broadly tuned to Z9-14:OAc, E11-14:OAc, Z11-14:OAc, E12-14:OAc, and Z12-14:OAc | current at 100 μM (OfurOR8): 8.5 ± 5.2 nA

CC/C=C\CCCCCCCCCCOC(C)=O [Z11-14:OAc, (Z)-11-tetradecenyl acetate]
current at 100 μM (OfurOR4): inhibited the response of Z9-14:OAc, Z11-14:OAc, and E11-14:OAc | current at 100 μM (OfurOR5b): OfurOR5b broadly tuned to Z9-14:OAc, E11-14:OAc, Z11-14:OAc, E12-14:OAc, and Z12-14:OAc | current at 100 μM (OfurOR8): 76.8 ± 14.1 nA

C/C=C\CCCCCCCCCCCOC(C)=O [Z12-14:OAc, (Z)-12-tetradecenyl acetate]
current at 100 μM (OfurOR4): 1876.8 ± 165 nA | current at 100 μM (OfurOR5b): OfurOR5b broadly tuned to Z9-14:OAc, E11-14:OAc, Z11-14:OAc, E12-14:OAc, and Z12-14:OAc
